Results from the Deep4Chem optical property database.

Test: photoluminescence quantum yield (fraction); solvent given as SMILES
[1] = in O=P(c1ccccc1)(c1ccccc1)c1ccccc1Oc1ccccc1P(=O)(c1ccccc1)c1ccccc1

SMILES: Cc1cc(C(F)(F)F)nc2c1ccc1nc(-c3ccc(Cl)cc3)cn12
- photoluminescence quantum yield (in CC#N): 0.84
- photoluminescence quantum yield (in CCCCOC(C)=O): 0.76
- photoluminescence quantum yield (in CCOC(C)=O): 0.9
- photoluminescence quantum yield (in CO): 0.78
- photoluminescence quantum yield (in ClC(Cl)Cl): 0.64
- photoluminescence quantum yield (in c1ccccc1): 0.88

SMILES: CN(C)c1ccc(C2=Nc3sc4c(F)c(F)c(F)c(F)c4[n+]3[B-](F)(F)O2)cc1
- photoluminescence quantum yield (in C1CCOC1): 0.47
- photoluminescence quantum yield (in CC#N): 0.02
- photoluminescence quantum yield (in Cc1ccccc1): 0.65
- photoluminescence quantum yield (in ClCCl): 0.66

SMILES: Cc1cccc(C)c1Nc1ccc(/C=C/c2ccccc2)cc1
- photoluminescence quantum yield (in CC#N): 0.04
- photoluminescence quantum yield (in CCCCCC): 0.11

SMILES: CCC1=C(C)C2=Cc3c(I)c(I)c(I)n3[B-](F)(F)[N+]2=C1C
- photoluminescence quantum yield (in C1CCCCC1): 0.065
- photoluminescence quantum yield (in CC(C)=O): 0.029
- photoluminescence quantum yield (in CCO): 0.037
- photoluminescence quantum yield (in CCOC(C)=O): 0.037
- photoluminescence quantum yield (in CO): 0.032
- photoluminescence quantum yield (in OCC(F)(F)F): 0.021

SMILES: c1ccc2c3c(ccc2c1)-c1cccc2c1c-3cc1ccccc12
- photoluminescence quantum yield (in CCCCCCC): 0.16

SMILES: O=C(O)c1ccc(-c2cnc(-c3ccc(N(c4ccccc4)c4ccccc4)cc3)s2)cc1
- photoluminescence quantum yield (in CO): 0.4

SMILES: O=c1ccc2cc3c(cc2o1)OCC3
- photoluminescence quantum yield (in CC(C)O): 0.23
- photoluminescence quantum yield (in CCO): 0.23
- photoluminescence quantum yield (in CCOCC): 0.06
- photoluminescence quantum yield (in CO): 0.3
- photoluminescence quantum yield (in O): 0.83

SMILES: CCOC(=O)CN1C(=O)C2=C(c3ccc(C#N)cc3)N(CC(=O)OCC)C(=O)C2=C1c1ccccc1
- photoluminescence quantum yield (in CC#N): 0.75
- photoluminescence quantum yield (in CS(C)=O): 0.51
- photoluminescence quantum yield (in Cc1ccccc1): 0.43

SMILES: Cc1cc(C2=Cc3cccc[n+]3[B-](F)(F)O2)ccc1N(C)C
- photoluminescence quantum yield (in ClC(Cl)Cl): 0.688

SMILES: CN(CC(O)c1cccc(O)c1)c1ccc([N+](=O)[O-])c(C2CC(c3cccc4ccccc34)=NN2c2ccccc2)c1 (configuration not stated)
- photoluminescence quantum yield (in C1CCCCC1): 0.16
- photoluminescence quantum yield (in C1CCOC1): 0.27
- photoluminescence quantum yield (in C1COCCO1): 0.5
- photoluminescence quantum yield (in CC#N): 0.25
- photoluminescence quantum yield (in CC(C)O): 0.17
- photoluminescence quantum yield (in CCOC(C)=O): 0.25
- photoluminescence quantum yield (in CCOCC): 0.23
- photoluminescence quantum yield (in CO): 0.19
- photoluminescence quantum yield (in Cc1ccccc1): 0.18
- photoluminescence quantum yield (in ClC(Cl)Cl): 0.22
- photoluminescence quantum yield (in O): 0.16

SMILES: CCC1=C(C)C2=Cc3c4ccccc4c4n3[B-](c3cc[n+](C)cc3)(Oc3ccccc3-4)[N+]2=C1C=Cc1ccc(OC)cc1 (configuration not stated)
- photoluminescence quantum yield (in CO): 0.21
- photoluminescence quantum yield (in CS(C)=O): 0.26

SMILES: c1cc2c3c(c1)OCCCCCCCOc1cccc(c1-c1c4ccccc4c-3c3ccccc13)OCCCCCCCO2
- photoluminescence quantum yield (in C1CCCCC1): 0.98

SMILES: C1=C/C2=C(\c3ccccc3)c3c[nH]c(c3)/C(c3ccccc3)=C3/C=CC(=N3)/C(c3ccccc3)=c3/cc/c([nH]3)=C(\c3ccccc3)C1=N2
- photoluminescence quantum yield (in CC(=O)N(C)C): 0.046

SMILES: COc1ccc(C2=[N+]3C(=C(c4ccc(I)cc4)c4ccc(-c5ccc(OC)cc5)n4[B-]3(F)F)C=C2)cc1
- photoluminescence quantum yield (in ClC(Cl)Cl): 0.42

SMILES: CCCCCOc1cc2oc(=O)c3c4ccc(O)cc4c4ccc5cccc6c(c1)c2c3c4c56
- photoluminescence quantum yield (in C1CCOC1): 0.27

SMILES: CCCCn1c(-c2ccc(-c3nnc(-c4cccs4)o3)cc2)nc(-c2ccccc2)c1-c1ccccc1
- photoluminescence quantum yield (in ClCCl): 0.33

SMILES: N#Cc1ccc(-n2nc(C#N)c(N3CCCC3)n2)cc1
- photoluminescence quantum yield (in CC#N): 0.579

SMILES: CC1=CC(C)=[N+]2C1=C(c1ccccc1)c1c(C)cc(/C=C/c3ccc(N(C)C)cc3)n1[B-]2(F)F
- photoluminescence quantum yield (in CCOCC): 0.83

SMILES: C#CCn1c2ccccc2c2cc(/C=C/c3cc(C)c4n3[B-](F)(F)[N+]3=C(C)C=C(C)C3=C4c3ccc(I)cc3)ccc21
- photoluminescence quantum yield (in CC#N): 0.77
- photoluminescence quantum yield (in CS(C)=O): 0.72
- photoluminescence quantum yield (in ClC(Cl)Cl): 0.66

SMILES: C#CCOc1ccc(/C=C/C2=[N+]3C(=C(c4ccc(N(CC)CC)cc4)c4c(C)cc(C)n4[B-]3(F)F)C(C)=C2)cc1
- photoluminescence quantum yield (in CO): 0.84

SMILES: N#Cc1c2oc3ccccc3oc2c(C#N)c2oc3ccccc3oc12
- photoluminescence quantum yield (in ClC(Cl)Cl): 0.78

SMILES: COc1ccc(C2=Cc3ccccc3P2(=O)c2ccccc2)cc1 (configuration not stated)
- photoluminescence quantum yield (in C1CCOC1): 0.41
- photoluminescence quantum yield (in ClCCl): 0.82

SMILES: CC(=O)[B-]1(C(C)=O)OC(c2ccccc2)=CC(c2ccccc2)=[O+]1
- photoluminescence quantum yield (in CC#N): 0.8
- photoluminescence quantum yield (in ClC(Cl)(Cl)Cl): 0.9

SMILES: Fc1cc(-c2ccc(-c3nc4cc(Br)ccc4[nH]3)cc2)ccc1-c1ccc(-c2nc3cc(Br)ccc3[nH]2)cc1
- photoluminescence quantum yield (in CN(C)C=O): 0.48

SMILES: c1ccc(-c2c3ccccc3c(-c3ccccc3)c3cc4ccccc4cc23)cc1
- photoluminescence quantum yield (in ClCCl): 0.97

SMILES: CCCCCCCCOc1ccc(-c2c3c4n(c(-c5ccc(OCCCCCCCC)cc5)c3c3n2[B-](c2ccccc2)(c2ccccc2)[n+]2c(ccc5cc(C(C)(C)C)ccc52)C=3C#N)[B-](c2ccccc2)(c2ccccc2)[n+]2c(ccc3cc(C(C)(C)C)ccc32)C=4C#N)cc1
- photoluminescence quantum yield (in ClC(Cl)Cl): 0.53

SMILES: C[Si](C)(C)[Si](C)(C)c1cccc2cc3ccccc3cc12
- photoluminescence quantum yield (in C1CCCCC1): 0.38
- photoluminescence quantum yield (in CC#N): 0.16

SMILES: CN(C)c1cccc2c1-c1ccccc1C2=O
- photoluminescence quantum yield (in C1CCCCC1): 0.075
- photoluminescence quantum yield (in CC#N): 0.0075
- photoluminescence quantum yield (in CCO): 0.00027
- photoluminescence quantum yield (in c1ccccc1): 0.073

SMILES: CCC1=C(C)C2=C(c3c4ccccc4c(-c4ccccc4)c4ccccc34)c3c(C)c(CC)c(C)n3[B-](F)(F)[N+]2=C1C
- photoluminescence quantum yield (in CC#N): 0.422
- photoluminescence quantum yield (in CCCCCC): 0.903
- photoluminescence quantum yield (in CCO): 0.804
- photoluminescence quantum yield (in CN(C)C=O): 0.648
- photoluminescence quantum yield (in Cc1ccccc1): 0.858
- photoluminescence quantum yield (in ClCCl): 0.833

SMILES: CCCC1=Cc2nc1ccc1[nH]c(cc1CCC)c1nc(c(OCc3ccc(C(=O)O)cc3)cc3[nH]c2cc3CCC)C(CCC)=C1
- photoluminescence quantum yield (in Cc1ccccc1): 0.21

SMILES: C[Si]1(C)O[Si](C)(C)c2cc3nc4ccc(Cl)cc4c(-c4ccccc4)c3cc2[Si](C)(C)O1
- photoluminescence quantum yield (in ClCCl): 0.29

SMILES: c1ccc(-c2nc(-c3ccccc3)nc(-c3ccc(N4c5ccccc5C5(c6ccccc6-c6ccccc65)c5ccccc54)cc3)n2)cc1
- photoluminescence quantum yield [1]: 0.801

SMILES: CCCCCCCCn1c(=O)c2cc3cc4cc5c(=O)n(CCCCCCCC)c(=O)c5cc4c(C#Cc4ccc(N(c5ccccc5)c5ccccc5)cc4)c3cc2c1=O
- photoluminescence quantum yield (in ClC(Cl)Cl): 0.39

SMILES: CC1=CC(C)=[N+]2C1=Cc1c3ccccc3c(C#Cc3cccs3)n1[B-]2(F)F
- photoluminescence quantum yield (in CCCCCC): 0.69
- photoluminescence quantum yield (in CCCCCCCCO): 0.45
- photoluminescence quantum yield (in CCOC(C)=O): 0.55
- photoluminescence quantum yield (in CN(C)C=O): 0.4
- photoluminescence quantum yield (in ClCCl): 0.44

SMILES: Cc1ccccc1C1=C2C=c3c(oc4ccccc34)=[N+]2[B-](F)(F)n2c1cc1c3ccccc3oc12
- photoluminescence quantum yield (in C1CCCCC1): 0.88
- photoluminescence quantum yield (in CCOC(C)=O): 0.93
- photoluminescence quantum yield (in CO): 0.88

SMILES: COc1ccc(C2=[N+]3C(=Nc4c5c6cc(OC)c(OC)c(OC)c6c6cc(C(C)(C)C)ccc6c5c(-c5ccc(OC)cc5)n4[B-]3(F)F)c3c2c2ccc(C(C)(C)C)cc2c2c(OC)c(OC)c(OC)cc32)cc1
- photoluminescence quantum yield (in Cc1ccccc1): 0.35

SMILES: COc1cc(C2=CC(c3ccccc3)=C(c3ccccc3)C2)cc(OC)c1OC
- photoluminescence quantum yield (in ClCCl): 0.0137

SMILES: CC1(C)c2ccccc2N(c2c(F)cc(-c3nnc(-c4ccccc4)o3)cc2F)c2ccccc21
- photoluminescence quantum yield (in Cc1ccccc1): 0.24
- photoluminescence quantum yield [1]: 0.72

SMILES: Cc1ccc2nc3[nH]c(=O)[nH]c(=O)c3nc2c1C
- photoluminescence quantum yield (in CC#N): 0.041

SMILES: Nc1ccc2c3c(cccc13)C(=O)c1ccccc1-2
- photoluminescence quantum yield (in CC#N): 0.1
- photoluminescence quantum yield (in CC(C)=O): 0.11
- photoluminescence quantum yield (in CC(C)O): 0.03
- photoluminescence quantum yield (in CCCCOCCCC): 0.34
- photoluminescence quantum yield (in CCOC(C)=O): 0.21
- photoluminescence quantum yield (in CCOCC): 0.26
- photoluminescence quantum yield (in CO): 0.02
- photoluminescence quantum yield (in Cc1ccccc1): 0.3
- photoluminescence quantum yield (in Clc1ccccc1): 0.25
- photoluminescence quantum yield (in N#Cc1ccccc1): 0.14
- photoluminescence quantum yield (in O=C1CCCCC1): 0.15

SMILES: COc1ccc(/C=C/c2ccncn2)cc1
- photoluminescence quantum yield (in ClCCl): 0.01

SMILES: Cc1ccccc1/C(C#N)=C/c1ccc(N(C)C)cc1
- photoluminescence quantum yield (in C1CCOC1): 0.011
- photoluminescence quantum yield (in C1COCCO1): 0.01
- photoluminescence quantum yield (in CC#N): 0.014
- photoluminescence quantum yield (in CCCCCC): 0.012
- photoluminescence quantum yield (in CCCCCCC): 0.008
- photoluminescence quantum yield (in CCCCCO): 0.01
- photoluminescence quantum yield (in CCCCO): 0.006
- photoluminescence quantum yield (in CCCO): 0.008
- photoluminescence quantum yield (in CCO): 0.006
- photoluminescence quantum yield (in CCOC(C)=O): 0.007
- photoluminescence quantum yield (in CN(C)C=O): 0.015
- photoluminescence quantum yield (in CO): 0.005
- photoluminescence quantum yield (in CS(C)=O): 0.011
- photoluminescence quantum yield (in Cc1ccccc1): 0.021
- photoluminescence quantum yield (in ClC(Cl)Cl): 0.009

SMILES: CCCCCCN1C(=O)c2cccc3cc(/N=C\c4ccc(N5CCOCC5)cc4)cc(c23)C1=O
- photoluminescence quantum yield (in ClC(Cl)Cl): 0.089

SMILES: CC1=[N+]2C(=C(c3ccccc3)c3ccc(C)n3[B-]2(F)F)C=C1
- photoluminescence quantum yield (in C1CCCCC1): 0.29
- photoluminescence quantum yield (in C1CCOC1): 0.25
- photoluminescence quantum yield (in CC#N): 0.17
- photoluminescence quantum yield (in CCOC(C)=O): 0.25
- photoluminescence quantum yield (in CO): 0.19
- photoluminescence quantum yield (in Cc1ccccc1): 0.42
- photoluminescence quantum yield (in ClC(Cl)Cl): 0.38

SMILES: CCCCC(CC)COc1cc(OCC(CC)CCCC)c2c#cc3ccc4oc5ccc(c#cc6cc(c#cc7ccc8oc9ccc(c#cc1c2)cc9c8c7)c(C(CCCC)OCCC)cc6C(CCCC)OCCC)cc5c4c3 (configuration not stated)
- photoluminescence quantum yield (in ClCCl): 0.57

SMILES: CC(C)(C)c1ccc2c(c1)Sc1cc(C(C)(C)C)ccc1N2c1ccc2c(ccc3nc4ccc5cc(N6c7ccc(C(C)(C)C)cc7Sc7cc(C(C)(C)C)ccc76)ccc5c4nc32)c1
- photoluminescence quantum yield (in C1CCCCC1): 0.11
- photoluminescence quantum yield (in Cc1ccccc1): 0.04

SMILES: COC(=O)/C(C#N)=c1/cc/c(=c2/cc/c(=C(\C#N)C(=O)OC)s2)s1
- photoluminescence quantum yield (in Cc1ccccc1): 0.0035

SMILES: c1ccc(-c2c3c(c(-c4ccccc4)c4cc5ccccc5cc24)Cc2c(c(-c4ccccc4)c4cc5ccccc5cc4c2-c2ccccc2)C3)cc1
- photoluminescence quantum yield (in CC#N): 0.27
- photoluminescence quantum yield (in CCCCCC): 0.28
- photoluminescence quantum yield (in CO): 0.3
- photoluminescence quantum yield (in Cc1ccccc1): 0.61
- photoluminescence quantum yield (in ClCCl): 0.21

SMILES: F[B-]1(F)n2c(-c3cccs3)cc(-c3ccccc3)c2N=C2C(c3ccccc3)=CC(c3cccs3)=[N+]21
- photoluminescence quantum yield (in CC#N): 0.46
- photoluminescence quantum yield (in ClCCl): 0.44

SMILES: O=c1c2ccccc2n(-c2ccc(-c3ccc(-n4c5ccccc5c(=O)c5ccccc54)cc3)cc2)c2ccccc12
- photoluminescence quantum yield (in ClCCl): 0.31
